Measured values: US20260224563A1, “CRYSTALLINE FORMS OF 6-(3-((5-CHLORO-2-METHOXYPYRIDINE)-3-SULFONAMIDO)-2,6-DIFLUOROPHENYL)-N-METHYLIMIDAZO[1,5-A]PYRAZINE-1-CARBOXAMIDE AND METHODS FOR USING THE SAME” (HIBERCELL, INC., priority 2023, published 2026)
Read-outs that look alike come from different tables or passages of the source.

Assay: Pharmacokinetics of HC-7366 in male and female beagle dogs following IV and oral administration of HC-7366-K (plasma and urine, LC-MS/MS)
Type: in vivo, Beagle Dog
Set-up: AUC(0-t)/D: unit not given here
Details: for AUC(0-inf) / AUC(0-t) / FPO / AUC(0-t)/D / t1/2: mean n = 3; for AUC(0-t): t = 48 h; for FPO: based on AUC(0-inf); for Cmax: suspension of Form III; for bioavailability: read-out: Mean oral bioavailability (FPO); for half-life: read-out: terminal half-life (t1/2) (converted); for Emesis: at 1 hour post dose
Experimental: The objective of this study was to characterize the pharmacokinetics of HC-7366 in male and female beagle dogs following intravenous (IV) and oral (PO) administration of the potassium salt of the compound of formula (I), which may be referred to in this Example as HC-7366-K.
The IV solution formulation of HC-7366-K contained “5% (v/v) DMSO and 95% (v/v) Captisol (20% w/v) in PBS (pH 7.4)”, and was administered […] dose at 0.5 mg free acid/kg.
The PO suspension formulation of HC-7366-K is a suspension of Form III of the potassium salt of the compound of formula (I) (see Example 6) and contained “0.5% (w/v) methylcellulose (400 cp) in water”, and was administered orally at 1 mg free acid/kg, 10 mg free acid/kg, 50 mg free acid/kg, 150 mg free acid/kg, respectively.
After dosing, blood samples were collected at various time points. Plasma and urine was harvested and analysed by LC-MS/MS to characterize the PK profiles of HC-7366.
HC-7366-K was stored at room temperature. The compound used in this study was HC-7366-K. All doses, concentrations and supporting data are expressed in terms of free acid. The molecular weight conversion factor from HC-7366-K to free acid was 1.11.
HC-7366-K was formulated as an IV solution at a target dose level of 0.5 mg/mL in “5% (v/v) DMSO and 95% (v/v) Captisol (20% w/v) in PBS (pH 7.4)”.
HC-7366-K was formulated as a PO suspension of Form III of the potassium salt of the compound of formula (I) (see Example 6) at a target dose concentration of 0.25 mg/mL, 2.5 mg/mL, 12.5 mg/mL and 37.5 mg/mL in “0.5% (w/v) methylcellulose (aq.) (400 cp) in water” respectively.
The dose was administered via intravenous and oral gavage at the target dose volume of 1, and 4 mL/kg, respectively. All animals had free access to water, were fasted overnight prior to dosing and fed approximately 2 hours after dosing. The IV dose and PO dose at 1 mg/kg were administered to the same dogs as a cross-over design. The PO dose was administered 10 days after the IV dose. The PO doses at 10, 50 and 150 mg/kg were administered to individual animals.
Following IV administration, blood samples (ca 0.3 mL) were collected from the venepuncture of peripheral veins except the dosing vein. Blood samples were collected pre dose and at 0.083 h, […], 0.5 h, 1 h, 2 h, 4 h, 8 h, […], 30 h, and 48 h post dose.
Following PO administration, blood samples (ca 0.3 mL) were collected from the venepuncture of peripheral veins. Blood samples were collected pre dose and at 0.25 h, 0.5 h, 1 h, 2 h, 4 h, 8 h, 24 h, 30 h, and 48 h post dose.
Blood samples were collected into tubes containing K2EDTA as anticoagulant. The acceptable time ranges for blood collection are shown below. […]. Samples were stored in a freezer set to maintain a temperature at or below −80° C. prior to analysis. The residual blood cells were discarded.
Urine samples were collected on cold packs into clean bottles and the cold packs were checked during the day and at each sampling interval. At the end of the collection interval, the volume of urine was recorded and then each sample was well mixed and maintained on wet ice throughout processing and then stored frozen at […]75±15° C. until analysis.
The plasma and urine concentration of HC-7366 was determined by protein precipitation with acetonitrile followed by liquid chromatography with mass spectrometric detection (LC MS/MS). Sample preparation was conducted by adding 50 uL plasma or 50 uL urine to 200 uL of acetonitrile containing dexamethasone as an analytical internal standard. There was no formal validation data to support the assay.
Calibration standards were prepared in male, female beagle dog plasma or urine using HC-7366 Free acid. Calibration standards were freshly prepared on the day of analysis.
Parameters were estimated using Phoenix (WinNonlin) pharmacokinetic software version 6.1.0 using a non-compartmental approach consistent with IV and PO routes of administration. […]

[1] = Female Beagle dog, IV 0.5 mg/kg, plasma
[2] = Female Beagle dog, PO 1 mg/kg, plasma
[3] = Female Beagle dog, PO 10 mg/kg, plasma
[4] = Female Beagle dog, PO 50 mg/kg, plasma
[5] = Female Beagle dog, PO 150 mg/kg
[6] = Female Beagle dog, PO 150 mg/kg, plasma
[7] = dog, plasma, female beagle dogs, oral 1 mg/kg
[8] = dog, Male Beagle dogs, IV 0.5 mg/kg, HC-7366 in plasma
[9] = dog, Male Beagle dogs, PO 1 mg/kg, HC-7366 in plasma
[10] = dog, Male Beagle dogs, PO 10 mg/kg, HC-7366 in plasma
[11] = dog, Male Beagle dogs, PO 50 mg/kg, HC-7366 in plasma
[12] = dog, Male Beagle dogs, PO 150 mg/kg, HC-7366 in plasma
[13] = plasma, female beagle dog, oral 10 mg/kg
[14] = plasma, female beagle dog, oral 50 mg/kg
[15] = plasma, female beagle dog, oral 150 mg/kg
[16] = plasma, male beagle dog, oral 1 mg/kg
[17] = plasma, male beagle dog, oral 10 mg/kg
[18] = plasma, male beagle dog, oral 50 mg/kg
[19] = plasma, male beagle dog, oral 150 mg/kg

Compound: CNC(=O)c1ncn2cc(-c3c(F)ccc(NS(=O)(=O)c4cc(Cl)cnc4OC)c3F)ncc12 [HC-7366-K, 6-(3-((5-chloro-2-methoxypyridine)-3-sulfonamido)-2,6-difluorophenyl)-N-methylimidazo[1,5-a]pyrazine-1-carboxamide]
- AUC(0-inf) [1]: 85.7 µg·h/mL
- AUC(0-t) [1]: 81.1 µg·h/mL
- FPO (Female Beagle dog, PO 1 mg/kg): 99%
- AUC(0-t)/D (Female Beagle dog, PO 1 mg/kg): 156383
- AUC(0-inf) [2]: 170 µg·h/mL
- t1/2 [2]: 13 h
- AUC(0-t) [2]: 156 µg·h/mL
- FPO (Female Beagle dog, PO 10 mg/kg): 84%
- AUC(0-t)/D (Female Beagle dog, PO 10 mg/kg): 126414
- AUC(0-inf) [3]: 1440 µg·h/mL
- t1/2 [3]: 14 h
- Tmax (Female Beagle dog, PO 10 mg/kg, range n = 3): 0.50 to 1.0 h
- AUC(0-t) [3]: 1260 µg·h/mL
- FPO (Female Beagle dog, PO 50 mg/kg): 63%
- AUC(0-t)/D (Female Beagle dog, PO 50 mg/kg): 97510
- AUC(0-inf) [4]: 5370 µg·h/mL
- t1/2 [4]: 14 h
- AUC(0-t) [4]: 4880 µg·h/mL
- FPO [5]: 32%
- AUC(0-t)/D [5]: 49629
- AUC(0-inf) [6]: 8260 µg·h/mL
- t1/2 [6]: 14 h
- AUC(0-t) [6]: 7440 µg·h/mL
- AUC(0-t)/D (Male Beagle dogs, IV 0.5 mg/kg): 155094
- FPO (Male Beagle dogs, PO 1 mg/kg): 73%
- AUC(0-t)/D (Male Beagle dogs, PO 1 mg/kg): 116097
- t1/2 (Male Beagle dogs, PO 10 mg/kg, HC-7366 in plasma): 15 h
- FPO (Male Beagle dogs, PO 10 mg/kg): 83%
- AUC(0-t)/D (Male Beagle dogs, PO 10 mg/kg): 126074
- t1/2 (Male Beagle dogs, PO 50 mg/kg, HC-7366 in plasma): 17 h
- FPO (Male Beagle dogs, PO 50 mg/kg): 58%
- AUC(0-t)/D (Male Beagle dogs, PO 50 mg/kg): 85797
- t1/2 (Male Beagle dogs, PO 150 mg/kg, HC-7366 in plasma): 11 h
- FPO (Male Beagle dogs, PO 150 mg/kg): 21%
- AUC(0-t)/D (Male Beagle dogs, PO 150 mg/kg): 34480
- Tmax (Male Beagle dogs, PO 150 mg/kg, range n = 3): 1.0 to 4.0 h
- Tmax (dog, plasma, Male Beagle dogs, PO 1 mg/kg, range n = 3, read-out: tmax): 0.25 to 0.5 h
- Tmax (dog, plasma, Male Beagle dogs, PO 10 mg/kg, range n = 3, read-out: tmax): 0.5 h
- Tmax (dog, plasma, Male Beagle dogs, PO 50 mg/kg, range n = 3, read-out: tmax): 0.5 to 1 h
- clearance (dog, plasma, female Beagle dogs, intravenous 0.5 mg/kg, read-out: Clearance (CL)): 5.84 mL/h/kg
- Vd (dog, plasma, female Beagle dogs, intravenous 0.5 mg/kg, read-out: volume of distribution at steady state (Vss)): 0.084 L/kg
- Cmax [7]: 10.7 µg/mL
- bioavailability [7]: 99%
- half-life [7]: 13 h
- AUC(0-inf) [8]: 85.6 µg·h/mL
- AUC(0-t) [8]: 77.5 µg·h/mL
- AUC(0-inf) [9]: 123 µg·h/mL
- AUC(0-t) [9]: 116 µg·h/mL
- AUC(0-inf) [10]: 1420 µg·h/mL
- AUC(0-t) [10]: 1260 µg·h/mL
- AUC(0-inf) [11]: 4930 µg·h/mL
- AUC(0-t) [11]: 4290 µg·h/mL
- AUC(0-inf) [12]: 5470 µg·h/mL
- AUC(0-t) [12]: 5170 µg·h/mL
- half-life (dog, female Beagle dogs, intravenous 0.5 mg/kg, plasma HC-7366, mean n=3): 12 h
- half-life (dog, male beagle dogs, intravenous 0.5 mg/kg, plasma HC-7366, mean n=3): 14 h
- Emesis (female beagle dog, oral 150 mg/kg): Emesis was observed
- Emesis (male beagle dog, oral 150 mg/kg): Emesis was observed
- gender differences in the PK parameters (male versus female beagle dogs): no notable gender differences
- dose proportionality of AUC (AUC/D values) (oral, between 1 and 50 mg/kg, beagle dogs): generally increased in proportional to dose level
- Tmax (plasma, Female Beagle dog, PO 1 mg/kg, range n = 3, read-out: tmax): 1 to 2 h
- Tmax (plasma, Female Beagle dog, PO 50 mg/kg, range n = 3, read-out: tmax): 2 to 4 h
- Tmax (plasma, Female Beagle dog, PO 150 mg/kg, range n = 3, read-out: tmax): 0.5 to 1 h
- Cmax [13]: 87 µg/mL
- Tmax (plasma, female beagle dog, oral 10 mg/kg, three animals, read-out: time post dose at which Cmax was observed (Tmax)): 0.5 to 1 h
- bioavailability [13]: 84%
- half-life [13]: 14 h
- Cmax [14]: 246 µg/mL
- bioavailability [14]: 63%
- half-life [14]: 14 h
- Cmax [15]: 350 µg/mL
- bioavailability [15]: 32%
- half-life [15]: 14 h
- Cmax [16]: 10.2 µg/mL
- bioavailability [16]: 73%
- half-life [16]: 12 h
- Cmax [17]: 94.3 µg/mL
- bioavailability [17]: 83%
- half-life [17]: 15 h
- Cmax [18]: 227 µg/mL
- bioavailability [18]: 58%
- half-life [18]: 17 h
- Cmax [19]: 280 µg/mL
- Tmax (plasma, male beagle dog, oral 150 mg/kg, three animals, read-out: time post dose at which Cmax was observed (Tmax)): 1 to 4 h
- bioavailability [19]: 21%
- half-life [19]: 11 h
